Measured values published in patent US12642780B2, “Methods and compositions to treat and prevent viral infections and acute respiratory distress syndrome” (priority 2020, dated 2026).

Experiments:
Format in all cases: cell-based, mouse
NLRP3 inflammasome = NLRP3 inflammasome activation in LPS-primed BMDM; details: for restoration of Casp1 activation and IL-1β secretion: metformin treated and ATP-stimulated macrophages, DMNQ 20 μM 16 hrs, MitoParaquat 5 μM 1 hr
BMDM [1] = assay: Mitochondrial function in BMDM (TMRM, MitoSOX, cellular ATP); details: for mtROS: metformin treated and ATP-stimulated macrophages, DMNQ 20 μM 16 hrs, MitoParaquat 5 μM 1 hr
mtDNA = mtDNA synthesis and cytosolic Ox-mtDNA in BMDM; details: for restoration of cytoplasmic Ox-mtDNA or mtDNA synthesis: metformin treated macrophages, DMNQ 20 μM 16 hrs, MitoParaquat 5 μM 1 hr
Procedure: To image mtDNA synthesis, BMDM were stimulated with LPS ([…]) for 4 hrs in the presence of 10 μM EdU. Cells were then washed twice with sterile PBS and fixed in 4% PFA for 15 min followed by permeabilization with 0.02% Triton X-100 for 10 min. EdU staining was performed using a Click-iT EdU Microplate Assay Kit (Thermo Fisher Scientific). In brief, BMDMs were postfixed in EdU fixative for 5 min, and equal volumes of the EdU reaction cocktail, which was prepared immediately before use, were added to each chamber and left overnight. Primary antibody against the mitochondrial marker Atp5b was included in the EdU reaction cocktail. The next day, the BMDM were washed three times with PBS followed by incubation with secondary Alexa antibodies from Life Technologies or Jackson Immuno Research Laboratories. DAPI was used for nuclear counterstaining.
Total DNA was isolated using Allprep DNA/RNA Mini Kit (catalogue 80204, Qiagen) according to manufacturer's instructions. mtDNA was quantified by qPCR using primers specific for the mitochondrial D-loop region, cytochrome c oxidase (COX) or a specific region of mtDNA that is not inserted into nuclear DNA (non-NUMT) (Zhong et al., 2018). Nuclear DNA encoding Teri, 18S ribosomal RNA and B2m was used for normalization.
Cellular fractionation was performed using Mitochondrial Isolation kit (89874, ThermoScientific) according to manufacturer's instructions. Cytosolic mtDNA was analyzed as described (Nakahira et al., 2011). For the measurement of Ox-mtDNA, mtDNA was first purified using Allprep DNA/RNA mini kit (Qiagen) from the cytosolic fraction of BMDM as described above. The 8-OH-dG content of the mtDNA was then quantified using an 8-OHdG quantification kit (ab201734), per manufacturer's instructions.

BMDM [2] = assay: Cytokine secretion by LPS-stimulated BMDM (ELISA)
Source text: Paired antibodies (capture and detection) and standard recombinant mouse IL-1β (R&D Systems), and TNF and IL-6 (eBioscience) were used to determine mouse cytokine concentrations according to manufacturer's instructions.

BMDM [3] = assay: Q-PCR quantitation of cytokine mRNAs in LPS-stimulated BMDM; design: Il6 mRNA induction: dose or concentration left out as unconfirmed; details: BMDM pretreated with SB202190 or SP600125 for 16 h, LPS
Procedure: RNA was extracted using AllPrep DNA/RNA Mini kit, and cDNA was synthesized using SuperScript™ VILO™ cDNA Synthesis Kit. mRNA expression was determined by QPCR in a CFX96 thermal cycler (Biorad) as described (Zhong et al., 2016). Data are presented in arbitrary units and calculated by the 2^(−ΔΔCT) method. Primer sequences were obtained from the NIH qPrimerDepot (http://mouseprimerdepot.nci.nih.gov) and provided by Integrated DNA technologies.

COC1=C(OC)C(=O)c2ccccc2C1=O [DMNQ, 2,3-dimethoxy-1,4-naphtoquinone]
restoration of Casp1 activation and IL-1β secretion (NLRP3 inflammasome): neither one restored | mtROS (BMDM [1]): increased | restoration of cytoplasmic Ox-mtDNA or mtDNA synthesis (mtDNA): neither parameter was restored

Cc1nc(-c2nc(-c3ccc(OC(F)(F)F)cc3)no2)nn1Cc1cccc(N2CCC(S(C)(=O)=O)CC2)c1 [IACS-010759]
IL-6 secretion (BMDM [2]; BMDM, IACS-010759 20 μM 16 hrs): modest inhibition | TNF secretion (BMDM [2]; BMDM, IACS-010759 20 μM 16 hrs): no effect | IL-1β production and Casp1 and GSMDM cleavage (NLRP3 inflammasome; LPS-primed macrophages with NLRP3 activators, IACS-010759 20 μM 16 hrs): inhibited | response to nigericin compared with other activators (NLRP3 inflammasome; LPS-primed macrophages, IACS-010759 20 μM 16 hrs): not as strongly inhibited | ROS production (BMDM [1]; BMDM, IACS-010759 20 μM 16 hrs, MitoSOX): enhanced | mtDNA synthesis (mtDNA; LPS-primed BMDM, IACS-010759 16 hrs): inhibited

Oc1ccc(-c2nc(-c3ccncc3)c(-c3ccc(F)cc3)[nH]2)cc1 [SB202190]
Il6 mRNA induction (BMDM [3]): blocked | IL-6 secretion (BMDM [2]; BMDM pretreated with SB202190 or SP600125 for 16 h, LPS): blocked

C[n+]1ccc(-c2cc[n+](CCCCCCCCCC[P+](c3ccccc3)(c3ccccc3)c3ccccc3)cc2)cc1.[I-].[I-].[I-] [mitoParaquat]
restoration of Casp1 activation and IL-1β secretion (NLRP3 inflammasome): neither one restored | mtROS (BMDM [1]): increased | restoration of cytoplasmic Ox-mtDNA or mtDNA synthesis (mtDNA): neither parameter was restored
